The data set has as its system primary human T cells. Kind of data set: GFP mRNA LNP transfection of isolated primary human T cells, flow cytometry. It counts as cell-based. Details: key to GFP Protein expression: Human T cell: *: The number of asterix symbols indicates protein expression levels interpreted by the inventors from quantitative data; **: The number of asterix symbols indicates protein expression levels interpreted by the inventors from quantitative data; ***: The number of asterix symbols indicates protein expression levels interpreted by the inventors from quantitative data; ****: The number of asterix symbols indicates protein expression levels interpreted by the inventors from quantitative data; *****: The number of asterix symbols indicates protein expression levels interpreted by the inventors from quantitative data; *******: The number of asterix symbols indicates protein expression levels interpreted by the inventors from quantitative data. The settings on record: for transfecting T cells in vitro, Mean Fluorescence Intensity (MFI): dose 500 ng, MC3 as control, FIG. 3; for GFP Protein expression: Human T cell: qualitative grade interpreted from quantitative data. How it is done: Downstream processing and analysis of treated T cells were done with flow cytometry and ELISA. Reagents were from Stemcell Technologies, Vancouver, Canada unless otherwise stated. […] At 48H following LNP-mediated mRNA exposure, the treated T cells were harvested by transferring the cell suspensions to pre-labeled 1.5 mL tubes and centrifuged 300×G at 4 degrees C. for 10 minutes. Supernatant was removed and the pellet resuspended in PBS. An amount of 0.5 ul of BD Horizon™ Fixable Viability Stain 575V™ (BD Biosciences), was added, and the mixture incubated in the dark for 10 minutes at RT. This stain binds to intracellular amines of a permeable plasma cell membrane of a necrotic cell and can be used to differentiate a viable cell and a non-viable cell during a flow cytometry assay.
The cells were centrifuged again as before, then washed twice with 1 mL of Stain buffer (BSA, BD Pharminigen), and the washed pellet was placed in 100 μl BSA. The following antibodies were added to each tube of treated cells in 2 μl volumes: CD25, CD8, CD4, (PerCP-Cy™ 5.5 Mouse Anti Human CD25, BV786 Mouse Anti-Human CD8 Clone RPA-T8, and APC-Cy™7 Mouse Anti-Human CD4 Clone SK3, all from BD Pharmingen™) with the exception of the controls: in the eGFP only sample and viability control, no antibody was added. In the single stain compensation tubes, only one antibody per tube was added.
The tubes were incubated at 4 degrees C. for 30 min, whereupon 400 μl of stain buffer (BSA) was added, and the cells were centrifuged again. Cells were washed once with 1 mL of stain buffer and spun down again. Cell pellets were resuspended in 1 mL of stain buffer and added to pre-labeled flow tubes with cell strainer caps (Corning Falcon).
After transfection, flow cytometry was used to generate eGFP or EPO expression levels as well as MFI values for the studies. […]
After transfection, flow cytometry was used to general GFP expression levels as well as MFI values for the studies.
Ionizable lipids of the invention, and MC3, were compared in a composition of CT10 at an N/P ratio of 10 for their ability to induce transfection as measured by MFI of labeled mRNA in T cells (as measured by flow cytometry).
T Cells were prepared and treated as previously described using negative selection and the triple activation protocol.
In order to expose the isolated and activated T cells (Day 0) to the formulated mRNA, […] media, with 1 μg/mL of Recombinant Human ApoE4 (“ApoE”) (Peprotech Inc., Montreal, Canada).
The dose of mRNA LNP was calculated based upon Ribogreen™ assay results. T cells were counted through Trypan blue (Sigma) exclusion and diluted to 500,000 cells/mL. Briefly, in a 12 well plate, 1 mL was aliquoted into each well. ApoE was added to a final concentration of 1 μg/mL in each well. Based upon the calibration, the required amount of mRNA LNP was added (day 3 to 7), and the plate incubated for 48 hours.
On the technique in general: In flow cytometry, cells or beads pass a laser one at a time.

`CC/C=C\CC1C(CC(=O)OCCC(CCCCCCCC)OC(=O)C(CCCCCC)CCCCCCCC)CCC1OC(=O)C1(C)CCN(C)CC1` (centres unmarked) [PNI 565]: the “GFP Protein expression: Human T cell” value was “*******”. Moreover, the “transfecting T cells in vitro, Mean Fluorescence Intensity (MFI)” value (CT10 composition) is listed as “substantially as good or better than MC3”. For the molecule `CC/C=C\CC1C(CC(=O)OCC(COCCCCCCCC/C=C\C/C=C\CCCCC)OCCCCCCCC/C=C\C/C=C\CCCCC)CCC1OC(=O)CCCN(C)C` (centres unmarked) [PNI 101], the “GFP Protein expression: Human T cell” value is reported as “****”. The “transfection efficiency in T cells from different donors” value (CT10, N/P 10, 48 h after treatment, six donors, FIG. 2) was “greater than those containing MC3 in six tested donors”. For the same molecule, the Cell viability result (CT10, N/P 10, compared to untreated cells (control)) is on record as “unaffected”. For the setting “CT10 composition, N/P 10, LNP 7 days post activation, FIG. 1”, the transfection efficiency entry was “greater transfection efficiency than either DODMA or MC3”. For `CCCCCCCCC1CC1CCCCCCCCOCC(COC(=O)CC1CCC(OC(=O)CCCN(C)C)C1CC1CC1CC)OCCCCCCCCC1CC1CCCCCCCC` (centres unmarked) [PNI 545], the “GFP Protein expression: Human T cell” value is on record as “*****”. On to `CC/C=C\CC1C(CC(=O)OCC(COCCCCCCCC/C=C\C/C=C\CCCCC)OCCCCCCCC/C=C\C/C=C\CCCCC)CCC1OC(=O)CCCN(CC)CC` (centres unmarked) [PNI 542], for which the “GFP Protein expression: Human T cell” value is “*****”.

On to `CC/C=C\CC1C(CC(=O)OC(CCCCCCCCC2CC2CCCCCCCC)CCCCCCCCC2CC2CCCCCCCC)CCC1OC(=O)C1(C)CCN(C)CC1` (centres unmarked) [PNI 560], for which the “GFP Protein expression: Human T cell” value is “****”. Same read-out and setting: the value for `CC/C=C\CC1C(CC(=O)OCC(COCCCCCCCC/C=C\C/C=C\CCCCC)OCCCCCCCC/C=C\C/C=C\CCCCC)CCC1OC(=O)CCCN1CCCC1` (centres unmarked) [PNI 558] was “*”. On the same count and under the same terms, the value for `CC/C=C\CC1C(CC(=O)OCC(COCCCCCCCC/C=C\C/C=C\CCCCC)OCCCCCCCC/C=C\C/C=C\CCCCC)CCC1OC(=O)CC1CCN(C)C1` (centres unmarked) [PNI 557] was “***”.

As to `CC/C=C\CC1C(CC(=O)OC(CCCCCCCCC2CC2CCCCCCCC)CCCCCCCCC2CC2CCCCCCCC)CCC1OC(=O)CCCN(C)C` (centres unmarked) [PNI 516], the “GFP Protein expression: Human T cell” value is “*****”. Still for that read-out and setting: the value for `CCCCCCCCC1CC1CCCCCCCCOCC(COC(=O)CC1CCC(OC(=O)CCN(C)C)C1CC1CC1CC)OCCCCCCCCC1CC1CCCCCCCC` (centres unmarked) [PNI 546] was “*”. On to `CC/C=C\CC1C(CC(=O)OCC(COCCCCCCCC/C=C\C/C=C\CCCCC)OCCCCCCCC/C=C\C/C=C\CCCCC)CCC1OC(=O)C1CCN(C)CC1` (centres unmarked) [PNI 132], for which the “GFP Protein expression: Human T cell” value is on record as “*******”. For the same molecule, the “transfecting T cells in vitro, Mean Fluorescence Intensity (MFI)” value (CT10 composition) was “substantially as good or better than MC3”. Consider `CC/C=C\CC1C(CC(=O)OC(CCCCCCCCC2CC2CCCCCCCC)CCCCCCCCC2CC2CCCCCCCC)CCC1OC(=O)CCN(C)C` (centres unmarked) [PNI 549], for which the “GFP Protein expression: Human T cell” value is on record as “**”. On the same count and under the same terms, the entry for `CC/C=C\CC1C(CC(=O)OCCC(CCCCCCCC)OC(=O)C(CCCCCC)CCCCCCCC)CCC1OC(=O)CCN(C)C` (centres unmarked) [PNI 554] is “***”; for `CC/C=C\CC1C(CC(=O)OCC(COCCCCCCCCC2CC2CCCCCCCC)OCCCCCCCCC2CC2CCCCCCCC)CCC1OC(=O)CCN(C)C` (centres unmarked) [PNI 544] it is “***”; for `CC/C=C\CC1C(CC(=O)OCC(COCCCCCCCC/C=C\C/C=C\CCCCC)OCCCCCCCC/C=C\C/C=C\CCCCC)CCC1OC(=O)CC1CCCCN1C` (centres unmarked) [PNI 559] it is “**”. Consider `CC/C=C\CC1C(CC(=O)OCC(COCCCCCCCC/C=C\C/C=C\CCCCC)OCCCCCCCC/C=C\C/C=C\CCCCC)CCC1OC(=O)C1(C)CCN(C)CC1` (centres unmarked) [PNI 123], for which the “GFP Protein expression: Human T cell” value was “***”.

The values are drawn from patent publication US12503432B2, “Ionizable lipids for nucleic acid delivery” (Global Life Sciences Solutions Canada ULC, priority 2019, dated 2025).
